Experimental data published in ChEMBL document CHEMBL5584278, “Deciphering the Selectivity of CBL-B Inhibitors Using All-Atom Molecular Dynamics and Machine Learning” (ACS Med Chem Lett, 2024).

Columns and labels:
[1] = biological target: E3 ubiquitin-protein ligase CBL-B (Homo sapiens, UniProt Q13191); experiment: Inhibition of CBL-B (unknown origin)
[2] = Inhibition of C-CBL (unknown origin); set-up: species or system Homo sapiens
Homo sapiens = organism: Homo sapiens; experiment: Selectivity ratio of IC50 for c-CBL (unknown origin) to IC50 for CBL-B (unknown origin)

E3 ubiquitin-protein ligase CBL-B, sequence (Q13191 whole entry): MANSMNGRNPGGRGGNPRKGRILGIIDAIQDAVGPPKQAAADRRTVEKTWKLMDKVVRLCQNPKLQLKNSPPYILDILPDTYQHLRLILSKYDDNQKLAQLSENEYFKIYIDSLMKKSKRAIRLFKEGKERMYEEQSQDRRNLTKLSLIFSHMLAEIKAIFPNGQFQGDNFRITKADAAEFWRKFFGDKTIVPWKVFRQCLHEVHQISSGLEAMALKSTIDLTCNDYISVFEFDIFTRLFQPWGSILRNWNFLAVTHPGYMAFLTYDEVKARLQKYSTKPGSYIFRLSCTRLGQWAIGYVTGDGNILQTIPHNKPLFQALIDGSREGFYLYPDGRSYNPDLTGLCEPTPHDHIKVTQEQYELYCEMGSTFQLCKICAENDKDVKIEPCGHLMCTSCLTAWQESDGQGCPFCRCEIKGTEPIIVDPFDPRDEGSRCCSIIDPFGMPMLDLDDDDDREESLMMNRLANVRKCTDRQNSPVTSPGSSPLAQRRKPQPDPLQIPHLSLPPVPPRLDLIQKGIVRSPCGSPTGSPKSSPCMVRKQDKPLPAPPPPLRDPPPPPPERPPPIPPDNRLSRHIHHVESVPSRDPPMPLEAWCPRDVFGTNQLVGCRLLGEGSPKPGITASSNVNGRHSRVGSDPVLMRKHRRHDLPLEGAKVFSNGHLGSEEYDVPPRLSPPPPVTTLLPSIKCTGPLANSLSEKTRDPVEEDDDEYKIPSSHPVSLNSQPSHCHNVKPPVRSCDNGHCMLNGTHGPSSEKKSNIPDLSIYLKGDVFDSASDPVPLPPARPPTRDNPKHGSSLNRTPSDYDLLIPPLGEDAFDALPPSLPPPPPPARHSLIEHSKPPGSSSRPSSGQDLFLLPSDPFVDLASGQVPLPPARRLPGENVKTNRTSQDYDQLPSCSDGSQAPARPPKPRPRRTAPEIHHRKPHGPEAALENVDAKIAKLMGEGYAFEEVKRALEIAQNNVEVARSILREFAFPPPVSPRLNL

| SMILES | IC50 [1] | IC50 [2] | Ratio IC50 (Homo sapiens) |
| --- | --- | --- | --- |
| COCCNCc1cc(C(F)(F)F)c2oc(-c3cccc(-c4ccc(F)cc4-c4nncn4C)c3)nc2c1 | ~200 nM | ~10000 nM | 50 |
| CC1CC(c2cccc(-c3nc4c(C(F)(F)F)cc(CN5CCC[C@H](C)C5)cc4[nH]3)c2)(c2nncn2C)C1 (some centres not stated) |  | ~10000 nM | 50 |
| CO[C@H]1C[C@@](c2cccc(N3Cc4c(cc(CNC5(C)CCC5)cc4C(F)F)C3=O)c2)(c2nncn2C)C1 | ~25 nM | ~150 nM | 6 |
| C[C@H](c1cc(C(F)(F)F)c2nc(-c3cccc(CC4(c5nncn5C)COC4)c3)[nH]c2c1)N1CCC2(CC2)C1 | ~200 nM | ~10000 nM | 50 |
| CC1CC(c2cccc(N3C(=O)c4cc(CNC5(C)CCC5)cc5c(F)ccc3c45)c2)(c2nncn2C)C1 (configuration not stated) | ~16.5 nM | ~165 nM | 10 |
| Cn1cnnc1[C@H](c1cccc(N2Cc3c(Cl)cc(CNC4(C)CCC4)cc3C2=O)c1)[C@H]1C[C@@H](F)C1 | ~170 nM | ~1100 nM | 6.5 |
| CC1CC(c2cccc(-c3nc4cc(CN5CCC[C@H](C)C5)cc(C(F)(F)F)c4[nH]3)c2)(c2nncn2C)C1 (some centres not stated) | ~200 nM |  |  |
| Cn1cnnc1CC1(c2cccc(N3CC4=C(C(F)(F)F)C=C(CN5CCC(C)(F)CC5)CN4C3=O)c2)COC1 | ~6 nM | ~60 nM | 10 |
| Cn1cnnc1C1(c2cccc(N3Cc4c(cc(CNC5(C)CCC5)cc4C(F)(F)F)C3=O)c2)CC2(CC(F)(F)C2)C1 | ~21 nM | ~120 nM | 6 |
| CC1CC(c2cccc(N3Cc4c(cc(CN5CCC[C@H](C)C5)cc4C(F)(F)F)C3=O)c2)(c2nncn2C)C1 (some centres not stated) | ~5 nM | ~20 nM | 4 |
